Experiments:
[1] = test system: MYC, PCNA, and MCL-1 levels; set-up: method as in earlier work; settings: initial pharmacodynamics data analysis; cited from earlier work
P-TEFb/CDK9 = settings: read-out: On target Potency IC50; cited from earlier work
MENIN-MLL interaction = MENIN-MLL interaction (Homo sapiens, UniProt O00255); test: On target potency, MENIN-MLL interaction; format: biochemical
Description: Table 1 Inhibitors used in this study. Chemical structures of inhibitor used in this study tackling Menin-MLL1 interaction, BRD4/2/3, DOT1L, CDK9, and DHODH active sites, with respective biochemical IC50, rationale and current developmental status | column: BAY-155

DHODH = test system: DHODH; set-up: method as in PMID 2743343; settings: read-out: On target Potency IC50; cited from earlier work
[2] = test system: H3K79me2 on HOXA9 and MEIS1; settings: clinical phase I study; cited from earlier work
AML patients = settings: cited from earlier work

Sequence of MENIN-MLL interaction (O00255 whole entry): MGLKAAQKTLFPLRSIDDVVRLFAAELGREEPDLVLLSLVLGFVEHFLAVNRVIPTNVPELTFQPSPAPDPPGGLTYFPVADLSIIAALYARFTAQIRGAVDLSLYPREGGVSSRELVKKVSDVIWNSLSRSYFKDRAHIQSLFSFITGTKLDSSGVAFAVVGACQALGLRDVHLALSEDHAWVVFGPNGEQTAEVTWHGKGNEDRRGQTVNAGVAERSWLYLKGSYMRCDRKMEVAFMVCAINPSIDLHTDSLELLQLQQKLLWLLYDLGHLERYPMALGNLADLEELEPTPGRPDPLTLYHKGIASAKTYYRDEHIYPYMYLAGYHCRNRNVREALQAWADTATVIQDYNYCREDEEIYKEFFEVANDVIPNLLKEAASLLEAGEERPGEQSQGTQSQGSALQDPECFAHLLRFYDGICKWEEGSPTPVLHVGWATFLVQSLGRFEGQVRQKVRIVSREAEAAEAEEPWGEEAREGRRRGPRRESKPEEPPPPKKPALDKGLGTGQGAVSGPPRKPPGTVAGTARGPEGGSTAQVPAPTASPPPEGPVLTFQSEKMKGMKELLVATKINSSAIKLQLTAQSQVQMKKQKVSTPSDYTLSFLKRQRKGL

COc1cc(F)ccc1-c1cc(Nc2cc(CS(C)(=N)=O)ccn2)ncc1F (stereo not shown) [BAY 1251152]
pharmacodynamics in phase I [1]: dose-dependent reduction of MYC, PCNA, and MCL-1 levels
IC50 (P-TEFb/CDK9): 3 nM

Cc1c(CN2CCC3(CC2)CN(c2ncnc4sc(CC(F)(F)F)cc24)C3)ccc2c1cc(C#N)n2CC(N)=O [BAY-155]
EC50 (MENIN-MLL interaction): 8 nM

CC(C)N(C[C@H]1O[C@@H](n2cnc3c(N)ncnc32)[C@H](O)[C@@H]1O)[C@H]1C[C@@H](CCc2nc3cc(C(C)(C)C)ccc3[nH]2)C1 [EPZ-5676]
H3K79me2 on HOXA9 and MEIS1 in AML patients [2]: significant reduction of H3K79me2 on HOXA9 and MEIS1

Cc1sc2c(c1C)C(c1ccc(Cl)cc1)=N[C@@H](CC(=O)Nc1ccc(O)cc1)c1nnc(C)n1-2 [OTX015]
clinical activity in AML patients (AML patients; AML patients harboring diverse driving mutations): partial blast clearance and recovery of platelets
dose-limiting effect in patients (AML patients; patients with incomplete bone marrow failure): severe thrombocytopenia as dose-limiting effect

From PMC6599250, “Functional diversity of inhibitors tackling the differentiation blockage of MLL-rearranged leukemia” (Journal of Hematology & Oncology, 2019)
